Measured values from publication PMC10382589, “In vitro and in vivo antiplasmodial evaluation of sugar-modified nucleoside analogues” (Scientific Reports, 2023).
Where two headings read alike, the source gives them in different places.

How the values were obtained:
[1] = tested on: Pf3D7 chloroquine-sensitive strain; experiment: SYBR green I based fluorescence growth inhibition assay, Pf3D7; assay type: cell-based, Plasmodium falciparum; settings: for IC50: Plasmodium falciparum, chloroquine-sensitive strain, synchronized late trophozoite parasites, SYBR Green, triplicate, mean ± SD, read-out: IC50 (µM) against Pf3D7; for growth inhibition against Pf3D7 (in words): screen at 1 µM and 10 µM, vs untreated control (Fig. S1)
Description: Growth of one intraerythrocytic cycle of Pf was monitored after treated with compounds whereas untreated parasites were considered as control.
(§1) The percent growth inhibition of the parasites was evaluated by SYBR Green assay.
(§2) Pf3D7 and PfRKL-9 were cultured by following procedure reported by Trager and Jensen[33]. […] In order to examine the morphological changes in the parasite, a blood film must be prepared. A thin blood film was air-dried, fixed with methanol, and allowed to dry before staining. […] Light microscopy analysis was carried out to evaluate the inhibitory effect of compounds at different concentrations against Pf3D7 and PfRKL-9.
SYBR green I based fluorescence assay was performed to measure the growth inhibition effect of the 26 compounds and further dose dependent assay against Pf3D7, and PfRKL-9 (Indian field strain, source- NIMR, New Delhi, India) was carried out at different concentrations. […] Parasitized erythrocytes were treated with different concentrations of compounds ranging from 1 µM to 10 µM, whereas DMSO worked as a control. Triplicate wells of parasitized erythrocytes treated with compounds were seeded in 96 well microtiter plate following incubation at 37 °C for one cycle of parasite growth. […] Growth inhibition (%) was calculated as follows: % Inhibition = [1 − % Parasitemia (Treatment)/% Parasitemia (Control)] *100. Data were expressed as mean ± SD.

[2] = tested on: chloroquine resistant strain PfRKL-9; experiment: SYBR green I based fluorescence growth inhibition assay, PfRKL-9; assay type: cell-based; settings: Plasmodium falciparum, synchronized late trophozoite parasites, triplicate, mean ± SD, read-out: IC50 (µM) against PfRKL-9
Description: as §1, §2
SYBR green I based fluorescence assay was performed to measure the growth inhibition effect of the 26 compounds and further dose dependent assay against Pf3D7, and PfRKL-9 (Indian field strain, source- NIMR, New Delhi, India) was carried out at different concentrations. In brief, Pf3D7 and PfRKL-9 parasitized erythrocytes (trophozoite stage with 1% parasitemia) were diluted with noninfected erythrocytes at a constant 2% hematocrit in culture medium. Parasitized erythrocytes were treated with different concentrations of compounds ranging from 1 µM to 10 µM, whereas DMSO worked as a control. Triplicate wells of parasitized erythrocytes treated with compounds were seeded in 96 well microtiter plate following incubation at 37 °C for one cycle of parasite growth. […] Growth inhibition (%) was calculated as follows: % Inhibition = [1 − % Parasitemia (Treatment)/% Parasitemia (Control)] *100. Data were expressed as mean ± SD.

[3] = tested on: embryonic kidney cell lines, HEK-293
Description: Cytotoxicity against human embryonic kidney cell line (ATCC) was determined using MTT dye[35]. In order to measuring the cytotoxicity of the compounds we used MTT dye to detect live/dead cells. […] cells were stored at 37 °C, 5% CO2 in […] sterile culture flasks (Corning) in complete Dulbecco's Modified Eagle Medium (DMEM) culture medium (a) supplemented with 5% Fetal Bovine Serum (FBS), gentamicin ([…]), with changing the medium thrice a week. The monolayers were washed, counted, diluted in complete medium, distributed in 96-well microtiter plates (5000 cells/well), followed by incubation for another 24 h at 37 °C. The test compounds and DMSO were added in triplicate. After a 48 h incubation at 37 °C, the supernatant was removed and 100 µL of MTT solution in complete DMEM was added to each well, followed by 2 h incubation at 37 °C. The culture plates were read in a spectrophotometer (Tecan infinite M200, nanoquant, UK) with a 490 nm filter, and the cytotoxic concentrations were determined based on a dose response curve.

human RBCs = experiment: Hemolytic activity on human RBCs; assay type: cell-based; settings: 0.5-20 µM, 10% (v/v) RBC suspension, 1 h, absorbance at 415 nm
Description: Effect of compounds on human RBCs was checked with the help of spectrophotometry by measuring the lysis of human red blood cells (hRBCs). Compounds were tested at 0.5, 1, 5, 10 and 20 μM concentrations with 10% (v/v) RBCs suspension for 1 h and observed the percentage of RBCs lysis by compounds 7, 16, 17, 18 and 1.
Human RBCs were from Rotary Blood Bank, Tughlakabad Institutional Area, New Delhi, India. Effect of compounds on RBCs was checked by hemolytic assay. In brief, RBCs suspension with 10% (v/v) washed with 1 × Phosphate-buffered saline (PBS) (pH 7.4) and again resuspended in 1 × PBS. RBCs suspension was incubated with compounds 7, 16, 17, 18 and 1 at different concentrations (0.5, 1, 5, 10 and 20 μM) for 1 h at 37 °C. Samples were centrifuged and supernatant was taken for absorbance at 415 nm. Triton X-100 with 1% (v/v) was used as a positive control. Experiment was done in triplicate.

[4] = tested on: Mitochondrial membrane potential of the malaria parasites; experiment: JC-1 mitochondrial membrane potential assay; assay type: cell-based, Plasmodium falciparum; settings: parasites treated with IC50 concentration for 3 h; untreated control 7.04 ± 1.30
Source text: Mitochondrial membrane potential is a marker of mitochondria’s functional status. Modification in mitochondrial membrane potential leading to mitochondrial dysfunction triggers cell death[25],[26]. Mitochondrial dysfunction was detected by using membrane permeant JC-1 dye. JC-1 is a cationic probe, due to electronegative environment inside the functionally active mitochondria with high Δψm, it aggregates in energised mitochondria and gives red color fluorescence at 590 nm, but in case of low Δψm (depolarized state), JC-1 remain in monomeric form and gives green color fluorescence at […]. Decreased ratio of red/green fluorescence intensity of compound treated sample as compared to untreated control indicates depolarized mitochondrial membrane[27],[28]. The damage to the parasite's mitochondria after treatment with compounds 7, 16, 17, 18 and 1 was measured according to the method reported previously. Because of lipophilic nature of the JC-1, it is cell permeable and emits a green signal (525 nm) in the cytoplasm, but the high transmembrane potential of functional mitochondria causes it to aggregate and emit a red signal (590 nm). […]. Mitochondrial membrane potential of the malaria parasites was determined by using MitoProbe™ JC-1 assay as described previously. In brief, trophozoite stage parasites (10–12% parasitemia) were treated with IC50 concentration of compounds 7, 16, 17, 18 and 1 for 3 h at 37 °C in the CO2 incubator. Samples were washed with 1 × PBS by centrifugation at 500 × g for 2 min at RT. Freshly prepared JC-1 dye was added to each sample with working concentration of 5 µg/mL. Incubation was done for 30 min at 37 °C in a CO2 incubator. Cells were washed twice with 1 × PBS. Spectrofluorometer was used to observe mitochondrial membrane potential by measuring fluoroscence intensities from the parasite lysate at wavelength of excitation (520 nm) and emission (590 nm) respectively. In vivo cell imaging was done with the help of Olympus fluoview 3000 confocal microscopy. Live cell imaging was observed under a 100X objective (oil immersion) and band pass filter at 355–460 nm. Experiments were repeated thrice and only representative figures are shown (Fig. 6).

P. berghei ANKA = experiment: In vivo antiplasmodial activity in P. berghei ANKA infected BALB/c mice; parameters: species or system Plasmodium berghei ANKA
Description: In vivo antiplasmodial efficacy of 7 was assessed in P. berghei ANKA infected BALB/c mice model. Compound dose was given intra-peritoneal injections for seven days in a row. To check the parasitemia, thin blood smears were made from P. berghei ANKA infected mice for up to seven consecutive days. […] Compound 7 was able to effectively reduce the parasite load compared to a control group of untreated mice for seven consecutive days post infection.
To make relevant inferences, statistical analyses were carried out on the in vivo data using Graphpad Prism data sheets.
Antiplasmodial activity of hit compound 7 was investigated in mice model with the help of protocol described previously. Briefly, intra-peritoneal injection of 1 × 10^7 Plasmodium berghei ANKA infected erythrocytes diluted with sterile 1 × PBS was injected into mice. In each group five mice were taken. Thin smears were made from the tail blood of mice to check the infection. Post infection, P. berghei infected mice administered intra-peritoneally with compound 7 with the dose of 50 mg/kg body weight, daily for seven consecutive days post infection. Mice treated with 1xPBS were kept as vehicle control. […] Data were calculated and presented as percentage increase in the parasitemia. All animal experiments were carried out in accordance with the standard approved procedures. […]

| Structure (SMILES) | IC50 [1] | growth inhibition against Pf3D7 (in words) [1] | IC50 [2] | Cell survival (%) at 500 µM ([3]; HEK-293 cells, MTT, 48 h incubation) | lysis of human RBCs (in words) (human RBCs) | JC-1 red/green ratio [4] | percentage parasitemia on the seventh day (P. berghei ANKA; 50 mg/kg intra-peritoneal, seven days, control 25%) | Mean survival time (MST) (P. berghei ANKA; 50 mg/kg, observed 21 days post-infection, control MST = 10 days) | Cell survival (%) at 500 µM ([3]; human, 48 h) |
| --- | --- | --- | --- | --- | --- | --- | --- | --- | --- |
| CC(=O)OC[C@H]1O[C@@H](SC[C@@H]2O[C@@H](n3cnc4c(NC(c5ccccc5)(c5ccccc5)c5ccccc5)ncnc43)[C@@H]3OC(C)(C)O[C@@H]32)[C@H](OC(C)=O)[C@@H](OC(C)=O)[C@@H]1OC(C)=O [Compound 7, 1-[2’,3’-O-isopropylidene-5’-S-(2,3,4,6-tetra-O-acetyl-β-D-glucopyranosyl)-5’-thio-α-L-lyxofuranosyl]-N-trityl-adenine] | 0.92 ± 1.8 µM | significant growth inhibition in a dose dependent manner | 2.1 ± 1.3 µM | 55% | no significant lysis | 5.26 ± 1.13 | 10% | 14 days | – |
| CC(=O)OC[C@H]1O[C@@H](SC[C@@H]2[C@@H](O[Si](C)(C)C(C)(C)C)[C@H](n3ccc(=O)[nH]c3=O)O[C@@H]2CO[Si](C)(C)C(C)(C)C)[C@H](OC(C)=O)[C@@H](OC(C)=O)[C@H]1OC(C)=O [Compound 16, 1-[3’-Deoxy-3’-C-(-2,3,4,6-tetra-O-acetyl-β-D-galactopyranosyl-sulfanylmethyl)-2’,5’-di-O-(tert-butyldimethylsilyl)-β-D-xylofuranosyl]-uracil] | 1.78 ± 1.3 µM | significant growth inhibition in a dose dependent manner | 9.55 ± 1.7 µM | – | no significant lysis | 4.98 ± 1.77 | – | – | 52% |
| CC(=O)O[C@@H]1[C@@H](OC(C)=O)[C@H](SC[C@@H]2[C@@H](O[Si](C)(C)C(C)(C)C)[C@H](n3ccc(=O)[nH]c3=O)O[C@@H]2CO[Si](C)(C)C(C)(C)C)OC[C@H]1OC(C)=O [Compound 17, 1-[3’-Deoxy-3’-C-(-2,3,4-tri-O-acetyl-β-D-xylopyranosyl-sulfanylmethyl)-2’,5’-di-O-(tert-butyldimethylsilyl)-β-D-xylofuranosyl]-uracil] | 1.33 ± 1.07 µM | significant growth inhibition in a dose dependent manner | 1.84 ± 1.06 µM | – | no significant lysis | 6.28 ± 1.55 | – | – | 51% |
| CC(=O)N[C@@H]1[C@@H](OC(C)=O)[C@H](OC(C)=O)[C@@H](COC(C)=O)O[C@H]1SC[C@@H]1[C@@H](O[Si](C)(C)C(C)(C)C)[C@H](n2cc(C)c(=O)[nH]c2=O)O[C@@H]1CO[Si](C)(C)C(C)(C)C [Compound 18, 1-[3’-Deoxy-3’-C-((2-acetamido-3,4,6-tri-O-acetyl-β-D-glucopyranosylthio)methyl)-2’,5’-di-O-(tert-butyldimethylsilyl)-β-D-xylofuranosyl]-5-methyluracil] | 1.15 ± 1.5 µM | significant growth inhibition in a dose dependent manner | 2.21 ± 1.3 µM | – | no significant lysis | 5.53 ± 1.40 | – | – | 60% |
